In US11596647B2, “Administration of synergistic amounts of modified citrus pectin and honokiol to treat inflammation and anti-oxidant needs” (ECONUGENICS INC, priority 2016, dated 2023):

Assay: Antioxidant activity, ABTS microplate assay (Trolox standard)
Type: biochemical
Details: FIG. 3; result in words
Excerpt: Since antioxidants neutralize the ROS, antioxidant activity of the nutraceutical would be of importance for product development. The principle underlying the antioxidant assay is formation of a ferryl myoglobin radical from metmyoglobin and hydrogen peroxide, which oxidizes ABTS (2,2′-azino-bis(3-ethylbenzthiazoline-6-sulfonic acid) to produce radical cation, ABTS+, a soluble chromogen that is green in color and can be determined spectrophotometrically at 405 nm. Antioxidants suppress the production of the radical cation in a concentration dependent manner and the color intensity decreases proportionally. Trolox, a water soluble vitamin E analog, is used as a control antioxidant for analyzing the antioxidant activity of other nutraceuticals/compounds. Microplate assay was used for the analysis of antioxidant activity with different products according to the procedure described in the Antioxidant assay kit (Sigma-Aldrich, St. Louis, Mo.). The relative antioxidant concentration (mM equivalent of Trolox standard) was calculated from the absorbance readings.

Structure (SMILES): C=CCc1ccc(O)c(-c2ccc(O)c(CC=C)c2)c1 [H, honokiol]
- antioxidant activity (relative ranking): least anti-oxidant activity
